Data: PubChem BioAssay AID2060504 (Molecular Pharmacology Branch, DTP, NCI, 2025)
pIC50: −log10 of the molar value.

System: 636577-100-R-J1-PDC complex spheroid viability
Experiment: Anticancer human tumor 636577-100-R-J1-PDC patient-derived endometrial adenocarcinoma cell line growth inhibition [GQUAD]
Conditions: for pIC50: curve of first compound; for viability, T/C: stronger effect = lower value; active means viability on the fitted dose curve at most 10% of control; inactive means the rest
Source text: DNA G-quadruplex Stabilizer Agents in Combinations in Complex Spheroids
A high-throughput screen of multi-cell type tumor spheroids was designed to identify active combinations of DNA G-quadruplex stabilizer agents and targeted small molecules. Complex spheroids include a stromal component modeled by human endothelial cells (HUVEC) and fibroblasts modeled by human mesenchymal stem cells (MSCs). The concentration ranges selected for each drug and investigational agent were based upon clinically achievable concentrations if the clinical Cmax of the agent was known.
Compounds. The drugs and investigational agents: pidnarulex (CX-5461; NSC782164), APTO-253 (NSC789042), BRACO-19 (NSC847499), peposertib (NSC802822), ceralasertib (NSC780249), elimusertib (NSC800525), camonsertib (NSC841442), AZD-1390 (NSC803789), olaparib (NSC753686), talazoparib (NSC767125), ART-558 (NSC835418), sotorasib (NSC818433), MRTX-1133 (NSC836407), SN-38 (NSC673596), topotecan (NSC609699), etoposide (NSC141540), doxorubicin (NSC123127), gemcitabine (NSC613327), 5-fluorouracil (NSC19893), paclitaxel (NSC125973), vemurafenib (NSC761431), panobinostat (NSC761190), R-306465 (JNJ-16241199; NSC773264), adavosertib (NSC754352), TP-3654 (NSC805149), carboplatin (NSC241240), KSQ-4279 (NSC840948), and staurosporine (NSC755774) were obtained from the National Cancer Institute (NCI) Developmental Therapeutics Program Chemical Repository (34). The FDA-approved anticancer drug set is available from the NCI Developmental Therapeutics Program. […] The stock solutions were prepared in dimethyl sulfoxide (DMSO, Sigma-Aldrich, St. Louis, MO, cat. D2650) at 800-fold the tested concentration and stored at -70 degrees C prior to their use. All drugs and investigational agents were tested over a range starting from a high concentration at or near the clinical Cmax and decreasing in half-log increments. If the clinical Cmax for an agent had not been determined, the highest concentration tested was 10 microM.
2.3 Cell Culture. All cells were maintained in an incubator at 37 degrees C and 5% CO2 with 95% humidity. The PDC lines were cultured according to standard operating procedures established by the NCI PDMR. All PDCs were thawed and cultured in Matrigel-coated flasks prepared with a working solution of 1X Ham's F-12 nutrient mix, without supplementation (Invitrogen, cat. 11765054), 100 U/mL penicillin-streptomycin (Invitrogen, cat. 15140122), and 2.5% Matrigel (Corning Inc., cat. 354248) for the first three passages. The 857933-349-R-J2-PDC line was cultured in 6C/Colon 1B media, which includes advanced DMEM/F-12 (Thermo Fisher Scientific, cat. 12634028), 10 mM HEPES (Thermo Fisher Scientific, cat. 15630080), 1X GlutaMAX supplement (Thermo Fisher Scientific, cat. 35050061), 0.1 mg/mL primocin (InvivoGen, cat. ant-pm-2), 10% defined fetal bovine serum, heat inactivated (HyClone Laboratories Inc., cat. SH30070.03HI), 50% L-WRN conditioned media (ATCC, cat. CRL-3276), 1.25 mM N-Acetyl-L-cysteine (Sigma-Aldrich, cat. A9165), 10 mM nicotinamide (Sigma-Aldrich, cat. N0636), 1X B-27 supplement (Thermo Fisher Scientific, cat. 17504044), 1X N-2 supplement (Thermo Fisher Scientific, cat. 17502048), 10 microM Y-27632 dihydrochloride (Tocris Bioscience, cat. 1254), and 50 ng/mL human EGF recombinant protein (Thermo Fisher Scientific, cat. PHG0311). The 485176-168-R4-J1-PDC line was cultured in Panc media, which includes all 6C/Colon 1B media components plus 100 ng/mL human FGF-10 (Thermo Fisher Scientific, cat. 100-26), 500 nM SB-431542 (Selleckchem, cat. S1067), and gastrin (Tocris, cat. 3006).
[…]

[1] = second compound 0.0316 µM, first compound 0.0316 µM
[2] = second compound 0.0316 µM, first compound 0.1 µM
[3] = second compound 0.0316 µM, first compound 0.316 µM
[4] = second compound 0.0316 µM, first compound 1 µM
[5] = second compound 0.0316 µM, first compound 3.16 µM
[6] = second compound 0.0316 µM, first compound 10 µM
[7] = second compound 0.1 µM, first compound 0.0316 µM
[8] = second compound 0.1 µM, first compound 0.1 µM
[9] = second compound 0.1 µM, first compound 0.316 µM
[10] = second compound 0.1 µM, first compound 1 µM
[11] = second compound 0.1 µM, first compound 3.16 µM
[12] = second compound 0.1 µM, first compound 10 µM
[13] = second compound 0.316 µM, first compound 0.0316 µM
[14] = second compound 0.316 µM, first compound 0.1 µM
[15] = second compound 0.316 µM, first compound 0.316 µM
[16] = second compound 0.316 µM, first compound 1 µM
[17] = second compound 0.316 µM, first compound 3.16 µM
[18] = second compound 0.316 µM, first compound 10 µM
[19] = second compound 1 µM, first compound 0.0316 µM
[20] = second compound 1 µM, first compound 0.1 µM
[21] = second compound 1 µM, first compound 0.316 µM
[22] = second compound 1 µM, first compound 1 µM
[23] = second compound 1 µM, first compound 3.16 µM
[24] = second compound 1 µM, first compound 10 µM
[25] = second compound 3.16 µM, first compound 0.0316 µM
[26] = second compound 3.16 µM, first compound 0.1 µM
[27] = second compound 3.16 µM, first compound 0.316 µM
[28] = second compound 3.16 µM, first compound 1 µM
[29] = second compound 3.16 µM, first compound 3.16 µM
[30] = second compound 3.16 µM, first compound 10 µM
[31] = second compound 10 µM, first compound 0.0316 µM
[32] = second compound 10 µM, first compound 0.1 µM
[33] = second compound 10 µM, first compound 0.316 µM
[34] = second compound 10 µM, first compound 1 µM
[35] = second compound 10 µM, first compound 3.16 µM
[36] = second compound 10 µM, first compound 10 µM
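Further: viability read after seven days of drug exposure.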
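Wherever viability, T/C is given: luminescence signal used as a proxy for viable cells; 100% = DMSO vehicle control wells.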

COc1cc(C2c3cc4c(cc3C(OC3OC5COC(C)OC5C(O)C3O)C3COC(=O)C23)OCO4)cc(OC)c1O (stereo unspecified) + CN(C)c1ccc(Nc2c3ccc(NC(=O)CCN4CCCC4)cc3nc3cc(NC(=O)CCN4CCCC4)ccc23)cc1
> 7.50: pIC50 (second compound 3.16 µM) | pIC50 (second compound 10 µM)
7.33: pIC50 (second compound 0.1 µM) | pIC50 (second compound 0.316 µM)
active: viability, T/C [31] 5.34% | viability, T/C [32] 4.62% | viability, T/C [33] 4.08% | viability, T/C [34] 4.02% | viability, T/C [35] 2.93% | viability, T/C [36] 2.35%
inactive: viability, T/C [1] 77.5% | viability, T/C [2] 33.3% | viability, T/C [3] 20.7% | viability, T/C [4] 17.2% | viability, T/C [5] 15.7% | viability, T/C [6] 13.8% | viability, T/C [7] 61.4% | viability, T/C [8] 27.9% | viability, T/C [9] 18.8% | viability, T/C [10] 19% | viability, T/C [11] 18.5% | viability, T/C [12] 14.6% | viability, T/C [13] 57% | viability, T/C [14] 37.1% | viability, T/C [15] 22.3% | viability, T/C [16] 17.7% | viability, T/C [17] 15.7% | viability, T/C [18] 12.9% | viability, T/C [19] 50.4% | viability, T/C [20] 30.6% | viability, T/C [21] 18.5% | viability, T/C [22] 20.1% | viability, T/C [23] 16.2% | viability, T/C [24] 13.8% | viability, T/C [25] 27.6% | viability, T/C [26] 20.5% | viability, T/C [27] 19.6% | viability, T/C [28] 17.4% | viability, T/C [29] 16.8% | viability, T/C [30] 13.1%
7.49: pIC50 (second compound 1 µM)
7.19: pIC50 (second compound 0.0316 µM)

Nc1ccn(C2OC(CO)C(O)C2(F)F)c(=O)n1 (stereo unspecified) + CN(C)c1ccc(Nc2c3ccc(NC(=O)CCN4CCCC4)cc3nc3cc(NC(=O)CCN4CCCC4)ccc23)cc1
inactive: viability, T/C [1] 17.7% | viability, T/C [2] 13.4% | viability, T/C [3] 14.6% | viability, T/C [4] 17.2% | viability, T/C [5] 16.4% | viability, T/C [6] 15.8% | viability, T/C [7] 17.7% | viability, T/C [8] 14.2% | viability, T/C [9] 14.9% | viability, T/C [10] 14.3% | viability, T/C [11] 14.5% | viability, T/C [12] 18.5% | viability, T/C [13] 16.9% | viability, T/C [14] 11.2% | viability, T/C [15] 14.2% | viability, T/C [16] 17.4% | viability, T/C [17] 16.4% | viability, T/C [18] 15.6% | viability, T/C [19] 15.9% | viability, T/C [20] 16.7% | viability, T/C [21] 15.2% | viability, T/C [22] 17.8% | viability, T/C [23] 16.5% | viability, T/C [24] 17.1% | viability, T/C [25] 16.6% | viability, T/C [26] 13.9% | viability, T/C [27] 15.2% | viability, T/C [28] 14.8% | viability, T/C [29] 16.3% | viability, T/C [30] 14.5%
active: viability, T/C [31] 3.38% | viability, T/C [32] 3.05% | viability, T/C [33] 4% | viability, T/C [34] 3.42% | viability, T/C [35] 3.65% | viability, T/C [36] 3.14%
> 7.50: pIC50 (second compound 0.0316 µM) | pIC50 (second compound 0.1 µM) | pIC50 (second compound 0.316 µM) | pIC50 (second compound 1 µM) | pIC50 (second compound 3.16 µM) | pIC50 (second compound 10 µM)

O=c1[nH]cc(F)c(=O)[nH]1 + CN(C)c1ccc(Nc2c3ccc(NC(=O)CCN4CCCC4)cc3nc3cc(NC(=O)CCN4CCCC4)ccc23)cc1
5.31: pIC50 (second compound 0.0316 µM)
5.26: pIC50 (second compound 0.316 µM)
> 7.50: pIC50 (second compound 3.16 µM) | pIC50 (second compound 10 µM)
inactive: viability, T/C [1] 83.1% | viability, T/C [2] 85.7% | viability, T/C [3] 87.9% | viability, T/C [4] 79.5% | viability, T/C [5] 62.5% | viability, T/C [6] 30.1% | viability, T/C [7] 105% | viability, T/C [8] 110% | viability, T/C [9] 72.3% | viability, T/C [10] 63.6% | viability, T/C [11] 67.5% | viability, T/C [12] 27.4% | viability, T/C [13] 88% | viability, T/C [14] 75.3% | viability, T/C [15] 75.6% | viability, T/C [16] 79.9% | viability, T/C [17] 69.5% | viability, T/C [18] 29.2% | viability, T/C [19] 67.5% | viability, T/C [20] 88.8% | viability, T/C [21] 70.5% | viability, T/C [22] 65.3% | viability, T/C [23] 50.8% | viability, T/C [24] 26% | viability, T/C [25] 43.7% | viability, T/C [26] 44.2% | viability, T/C [27] 49.5% | viability, T/C [28] 32.1% | viability, T/C [29] 27.7% | viability, T/C [30] 21%
5.43: pIC50 (second compound 0.1 µM)
active: viability, T/C [31] 7% | viability, T/C [32] 6.98% | viability, T/C [33] 6.89% | viability, T/C [34] 6.25% | viability, T/C [35] 6.48% | viability, T/C [36] 3.81%
5.50: pIC50 (second compound 1 µM)
